Here are results for 16 molecules from patent US11904020B2, “Bicyclic peptide ligands specific for TREM2” (Bicycle Tx Limited, priority 2021, dated 2024).

SMILES strings stand for the structures. *1 amine or outer side, *2 acyl side, *3 side chain or, on linkers, in order; H or OH if unused. Where a SMILES comes first, the peptide text is derived from it. Bridges are numbered along the chain shown (N, C = ends). [ ]: non-standard residue; d: D form. TATA = O=C(CC[*:1])N1CN(C(=O)CC[*:2])CN(C(=O)CC[*:3])C1; 1Nal = N[C@@H](Cc1cccc2ccccc12)C(=O)O

As a reminder, the Kd is the constant that tells how readily two partners part at equilibrium.
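Also: Bio-layer interferometry in 50 mM HEPES pH 7.5 with 150 mM NaCl and 0.1% Tween, double-referenced with blank wells and unrelated-protein sensors, equilibrium response fitted versus concentration.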

The target of this assay is TREM2 extracellular domain (ECD) (residues 19-131, C-terminally biotinylated, deglycosylated or glycosylated) (Homo sapiens, UniProt Q9NZC2). As to the kind of experiment: biochemical. To be noted: Human BLI (Kd; nM) (deglycosylated), Table 4A; deglycosylated human TREM2 ECD; steady-state KD, 25° C.
Sequence of TREM2 extracellular domain (ECD) (residues 19-131, C-terminally biotinylated, deglycosylated or glycosylated) (Q9NZC2 19-131): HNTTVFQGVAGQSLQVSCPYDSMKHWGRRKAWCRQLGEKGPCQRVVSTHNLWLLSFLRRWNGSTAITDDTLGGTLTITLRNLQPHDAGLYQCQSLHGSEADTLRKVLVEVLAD
Method: Bio-layer interferometry was performed on an Octet RED384® system (Sartorius) at 25° C. in a buffer containing 50 mM HEPES (pH 7.5), 150 mM NaCl and 0.1% Tween. TREM2 extracellular domain (ECD) (residues 19-131, C-terminally biotinylated, deglycosylated or glycosylated) was loaded onto Superstreptavidin biosensors (SSA, 18-5070, Sartorius) at 0.0125 mg/ml for 300 s. Bicycle peptides (10 mM in DMSO) were dispensed into 384-Well Tilted-Bottom Plates (18-5076, Sartorius) using an Echo liquid handler giving a final DMSO concentration of 0.125% in all wells including control wells. Association of defined concentrations of bicyclic peptide (0-12.5 μM, 1:2 dilutions for 7 points) was recorded over 120 s followed by dissociation in buffer over 120 s. Reference wells containing no bicycle peptides and reference sensors loaded with an unrelated protein (His-tagged MLLT3a) were subjected to the same assay protocol and double reference subtraction was used for processing to account for non-specific binding. Traces were analysed using Octet Software (Version 11.0). Association and dissociation curves were globally fit and the response at equilibrium (Req) plotted against concentration to obtain steady-state KD values.
In turn, `C[C@H](N)C(=O)N[C@H]1CSCCC(=O)N2CN3CN(C2)C(=O)CCSC[C@H](NC(=O)[C@H](Cc2ccc(O)cc2)NC(=O)[C@H](CCC(=O)O)NC(=O)[C@H](CO)NC1=O)C(=O)N[C@@H](Cc1ccccc1)C(=O)N[C@@H](Cc1c[nH]c2ccccc12)C(=O)N1CCC[C@H]1C(=O)N[C@@H](Cc1ccccc1)C(=O)N[C@@H](Cc1ccc(O)cc1)C(=O)N[C@@H](CO)C(=O)N[C@H](C(=O)N[C@@H](C)C(N)=O)CSCCC3=O` [BCY17669, A-(SEQ ID NO: 2)-A] (H-ACSEYCFWPFYSCA-NH2; linker 2-6-13 via TATA) came in with a Kd of 1200 nM.
For `CC(=O)N[C@H]1CSCCC(=O)N2CN3CN(C2)C(=O)CCSC[C@H](NC(=O)[C@H](Cc2ccc(O)cc2)NC(=O)[C@H](CCC(=O)O)NC(=O)[C@H](CO)NC1=O)C(=O)N[C@@H](Cc1ccccc1)C(=O)N[C@@H](Cc1c[nH]c2ccccc12)C(=O)N1CCC[C@H]1C(=O)N[C@@H](Cc1ccccc1)C(=O)N[C@@H](Cc1ccc(O)cc1)C(=O)N[C@@H](Cc1c[nH]cn1)C(=O)N[C@H](C(N)=O)CSCCC3=O` [BCY18217, Ac-(SEQ ID NO: 1)] the value was 900 nM; for `CC(=O)N[C@@H](C)C(=O)N[C@H]1CSCCC(=O)N2CN3CN(C2)C(=O)CCSC[C@H](NC(=O)[C@H](Cc2ccc(O)cc2)NC(=O)[C@H](CCC(=O)O)NC(=O)[C@H](CO)NC1=O)C(=O)N[C@@H](Cc1ccccc1)C(=O)N[C@@H](Cc1c[nH]c2ccccc12)C(=O)N1CCC[C@H]1C(=O)N[C@@H](Cc1ccccc1)C(=O)N[C@@H](Cc1ccc(O)cc1)C(=O)N[C@@H](Cc1c[nH]cn1)C(=O)N[C@H](C(=O)N[C@@H](C)C(N)=O)CSCCC3=O` [BCY18218, Ac-A-(SEQ ID NO: 1)-A] (Ac-ACSEYCFWPFYHCA-NH2; linker 2-6-13 via TATA), 2000 nM.
In turn, `NC(=O)[C@@H]1CSCCC(=O)N2CN3CN(C2)C(=O)CCSC[C@H](N)C(=O)N[C@@H](CO)C(=O)N[C@@H](CCC(=O)O)C(=O)N[C@@H](Cc2ccc(O)cc2)C(=O)N[C@@H](CSCCC3=O)C(=O)N[C@@H](Cc2ccccc2)C(=O)N[C@@H](Cc2c[nH]c3ccccc23)C(=O)N2CCC[C@H]2C(=O)N[C@@H](Cc2ccccc2)C(=O)N[C@@H](Cc2ccc(O)cc2)C(=O)N[C@@H](Cc2c[nH]cn2)C(=O)N1` [BCY18219, SEQ ID NO: 1] showed a Kd of 700 nM.
For `C[C@H](N)C(=O)N[C@H]1CSCCC(=O)N2CN3CN(C2)C(=O)CCSC[C@H](NC(=O)[C@H](Cc2ccc(O)cc2)NC(=O)[C@H](CCC(=O)O)NC(=O)[C@H](C)NC1=O)C(=O)N[C@@H](Cc1ccccc1)C(=O)N[C@@H](Cc1c[nH]c2ccccc12)C(=O)N1CCC[C@H]1C(=O)N[C@@H](Cc1ccccc1)C(=O)N[C@@H](Cc1ccc(O)cc1)C(=O)N[C@@H](Cc1c[nH]cn1)C(=O)N[C@H](C(=O)N[C@@H](C)C(N)=O)CSCCC3=O` [BCY18220, A-(SEQ ID NO: 24)-A] (H-ACAEYCFWPFYHCA-NH2; linker 2-6-13 via TATA), the Kd is 2000 nM.
For `C[C@H](N)C(=O)N[C@H]1CSCCC(=O)N2CN3CN(C2)C(=O)CCSC[C@H](NC(=O)[C@H](Cc2ccc(O)cc2)NC(=O)[C@H](C)NC(=O)[C@H](CO)NC1=O)C(=O)N[C@@H](Cc1ccccc1)C(=O)N[C@@H](Cc1c[nH]c2ccccc12)C(=O)N1CCC[C@H]1C(=O)N[C@@H](Cc1ccccc1)C(=O)N[C@@H](Cc1ccc(O)cc1)C(=O)N[C@@H](Cc1c[nH]cn1)C(=O)N[C@H](C(=O)N[C@@H](C)C(N)=O)CSCCC3=O` [BCY18221, A-(SEQ ID NO: 25)-A] (H-ACSAYCFWPFYHCA-NH2; linker 2-6-13 via TATA), binding was put at a Kd of 1800 nM.
For `CC(=O)N[C@H]1CSCCC(=O)N2CN3CN(C2)C(=O)CCSC[C@H](NC(=O)[C@H](Cc2ccc(O)cc2)NC(=O)[C@H](CCC(=O)O)NC(=O)[C@H](CO)NC1=O)C(=O)N[C@@H](Cc1ccccc1)C(=O)N[C@@H](Cc1cccc2ccccc12)C(=O)N1CCC[C@H]1C(=O)N[C@@H](Cc1ccccc1)C(=O)N[C@@H](Cc1ccc(O)cc1)C(=O)N[C@@H](Cc1c[nH]cn1)C(=O)N[C@H](C(N)=O)CSCCC3=O` [BCY19669, Ac-(SEQ ID NO: 37)] (Ac-CSEYCF[1Nal]PFYHC-NH2; linker 1-5-12 via TATA) the value was 2000 nM; for `CC(=O)N[C@H]1CSCCC(=O)N2CN3CN(C2)C(=O)CCSC[C@H](NC(=O)[C@H](Cc2ccc(O)cc2)NC(=O)[C@H](CCC(=O)O)NC(=O)[C@H](CO)NC1=O)C(=O)N[C@@H](Cc1ccccc1)C(=O)N[C@@H](Cc1c[nH]c2cc(Cl)ccc12)C(=O)N1CCC[C@H]1C(=O)N[C@@H](Cc1ccccc1)C(=O)N[C@@H](Cc1ccc(O)cc1)C(=O)N[C@@H](Cc1c[nH]cn1)C(=O)N[C@H](C(N)=O)CSCCC3=O` [BCY19671, Ac-(SEQ ID NO: 42)], 1000 nM.
For `C[C@H](N)C(=O)N[C@H]1CSCCC(=O)N2CN3CN(C2)C(=O)CCSC[C@H](NC(=O)[C@H](Cc2ccc(O)cc2)NC(=O)[C@H](Cc2ccc(O)cc2)NC(=O)[C@H](CO)NC1=O)C(=O)N[C@@H](Cc1ccccc1)C(=O)N[C@@H](Cc1c[nH]c2ccccc12)C(=O)N1CCC[C@H]1C(=O)N[C@@H](Cc1ccccc1)C(=O)N[C@@H](CCC(N)=O)C(=O)N[C@@H](CO)C(=O)N[C@H](C(=O)N[C@@H](C)C(N)=O)CSCCC3=O` [BCY19766, A-(SEQ ID NO: 8)-A] (H-ACSYYCFWPFQSCA-NH2; linker 2-6-13 via TATA; C-terminus assumed) the value was 1000 nM; for `C[C@H](N)C(=O)N[C@H]1CSCCC(=O)N2CN3CN(C2)C(=O)CCSC[C@H](NC(=O)[C@H](Cc2ccc(O)cc2)NC(=O)[C@H](CO)NC(=O)[C@H]([C@@H](C)O)NC1=O)C(=O)N[C@@H](Cc1ccccc1)C(=O)N[C@@H](Cc1c[nH]c2ccccc12)C(=O)N1CCC[C@H]1C(=O)N[C@@H](Cc1ccccc1)C(=O)N[C@@H](Cc1ccc(O)cc1)C(=O)N[C@@H](CCC(N)=O)C(=O)N[C@H](C(=O)N[C@@H](C)C(N)=O)CSCCC3=O` [BCY19768, A-(SEQ ID NO: 10)-A] (H-ACTSYCFWPFYQCA-NH2; linker 2-6-13 via TATA; N-terminus and C-terminus assumed), 900 nM.
`C[C@H](N)C(=O)N[C@H]1CSCCC(=O)N2CN3CN(C2)C(=O)CCSC[C@H](NC(=O)[C@H](Cc2ccc(O)cc2)NC(=O)[C@H](CC(N)=O)NC(=O)[C@H]([C@@H](C)O)NC1=O)C(=O)N[C@@H](Cc1ccccc1)C(=O)N[C@@H](Cc1c[nH]c2ccccc12)C(=O)N1CCC[C@H]1C(=O)N[C@@H](Cc1ccccc1)C(=O)N[C@@H](Cc1c[nH]c2ccccc12)C(=O)N[C@@H](CO)C(=O)N[C@H](C(=O)N[C@@H](C)C(N)=O)CSCCC3=O` [BCY19769, A-(SEQ ID NO: 11)-A] (H-ACTNYCFWPFWSCA-NH2; linker 2-6-13 via TATA) registered a Kd of 920 nM.
The molecule `C[C@H](N)C(=O)N[C@H]1CSCCC(=O)N2CN3CN(C2)C(=O)CCSC[C@H](NC(=O)[C@H](Cc2ccc(O)cc2)NC(=O)[C@H](CC(N)=O)NC(=O)[C@H](CO)NC1=O)C(=O)N[C@@H](Cc1ccccc1)C(=O)N[C@@H](Cc1c[nH]c2ccccc12)C(=O)N1CCC[C@H]1C(=O)N[C@@H](Cc1ccccc1)C(=O)N[C@@H](Cc1c[nH]c2ccccc12)C(=O)N[C@@H](CCC(N)=O)C(=O)N[C@H](C(=O)N[C@@H](C)C(N)=O)CSCCC3=O` [BCY19770, A-(SEQ ID NO: 12)-A] (H-ACSNYCFWPFWQCA-NH2; linker 2-6-13 via TATA; N-terminus and C-terminus assumed) displayed a Kd of 1800 nM.
For the molecule `CC(C)C[C@@H]1NC(=O)[C@H](Cc2ccccc2)NC(=O)[C@H](Cc2ccccc2)NC(=O)[C@@H]2CCCN2C(=O)[C@H](Cc2c[nH]c3ccccc23)NC(=O)[C@H](Cc2ccccc2)NC(=O)[C@@H]2CSCCC(=O)N3CN(CN(C3)C(=O)CCSC[C@@H](C(=O)N[C@@H](C)C(N)=O)NC1=O)C(=O)CCSC[C@H](NC(=O)[C@H](C)N)C(=O)N[C@@H](CO)C(=O)N[C@@H](CCC(=O)O)C(=O)N[C@@H](Cc1ccc(O)cc1)C(=O)N2` [BCY19776, A-(SEQ ID NO: 15)-A] (H-ACSEYCFWPFFLCA-NH2; linker 2-6-13 via TATA), the Kd stood at 750 nM.
For `C[C@H](N)C(=O)N[C@H]1CSCCC(=O)N2CN3CN(C2)C(=O)CCSC[C@H](NC(=O)[C@H](Cc2ccc(O)cc2)NC(=O)[C@H](CC(N)=O)NC(=O)[C@H]([C@@H](C)O)NC1=O)C(=O)N[C@@H](Cc1ccccc1)C(=O)N[C@@H](Cc1c[nH]c2ccccc12)C(=O)N1CCC[C@H]1C(=O)N[C@@H](Cc1ccccc1)C(=O)N[C@@H](CCC(N)=O)C(=O)N[C@@H](CO)C(=O)N[C@H](C(=O)N[C@@H](C)C(N)=O)CSCCC3=O` [BCY19780, A-(SEQ ID NO: 19)-A] (H-ACTNYCFWPFQSCA-NH2; linker 2-6-13 via TATA) the value was 2400 nM; for `C[C@H](N)C(=O)N[C@H]1CSCCC(=O)N2CN3CN(C2)C(=O)CCSC[C@H](NC(=O)[C@H](Cc2ccc(O)cc2)NC(=O)[C@H](CC(N)=O)NC(=O)[C@H]([C@@H](C)O)NC1=O)C(=O)N[C@@H](Cc1ccccc1)C(=O)N[C@@H](Cc1c[nH]c2ccccc12)C(=O)N1CCC[C@H]1C(=O)N[C@@H](Cc1ccccc1)C(=O)N[C@@H](Cc1ccc(O)cc1)C(=O)N[C@@H](CO)C(=O)N[C@H](C(=O)N[C@@H](C)C(N)=O)CSCCC3=O` [BCY19781, A-(SEQ ID NO: 20)-A] (H-ACTNYCFWPFYSCA-NH2; linker 2-6-13 via TATA), 1400 nM.
In turn, `CC(C)[C@@H]1NC(=O)[C@H](C)NC(=O)[C@H](Cc2ccccc2)NC(=O)[C@@H]2CCCN2C(=O)[C@H](Cc2c[nH]c3ccccc23)NC(=O)[C@H](Cc2ccccc2)NC(=O)[C@@H]2CSCCC(=O)N3CN(CN(C3)C(=O)CCSC[C@@H](C(=O)N[C@@H](C)C(N)=O)NC1=O)C(=O)CCSC[C@H](NC(=O)[C@H](C)N)C(=O)N[C@@H]([C@@H](C)O)C(=O)N[C@@H](CC(N)=O)C(=O)N[C@@H](Cc1ccc(O)cc1)C(=O)N2` [BCY19783, A-(SEQ ID NO: 22)-A] (H-ACTNYCFWPFAVCA-NH2; linker 2-6-13 via TATA) displayed a Kd of 2700 nM.
